We go through two compounds from paper PMC9728921, “Characterization of a KDM5 small molecule inhibitor with antiviral activity against hepatitis B virus” (PLOS ONE, 2022).

Series [1] in a line: Cell-associated GS-080 exposure and half-life in PHH (LC-MS). It is filed as in vitro ADME, human. The method, then:
PHH were infected with HBV for three days prior to initiation of GS-5801 treatment. PHH were dosed with vehicle or 1 µM GS-5801once for three days (three day exposure; continuous dosing) or once for two hours (two hour exposure; pulse dosing). […] (C) Pharmacokinetic parameters calculated included the half-life (t1/2), maximum concentration (Cmax), and area under the curve (AUClast).

A short description of series [2]: Liver to plasma AUC ratio, rat. It is filed as in vivo, Sprague Dawley rats. The note with it: male, Sprague Dawley, liver and plasma, po, 1 mg/kg, read-out: GS-080 liver to plasma AUC ratio. On the procedure:
Rats and monkeys were dosed by oral gavage once with 1 mg/kg or 2.5 mg/kg, respectively. The rat study included a vehicle control group (water). Serial venous blood samples were taken at 0, 0.25, 0.5, 1, 2, 4, 6, 8, 12, and 24 hours post dose from each animal and collected into vacutainer tubes containing potassium oxalate/sodium fluoride (Thermo Fisher; BD367925) as the anti-coagulant and blood was centrifuged for plasma isolation. […] For monkey, liver samples were taken by biopsy at pre-dose, 1, 4, 24, 48, and 72 hours post dose (n = 2 per time point). Rat and monkey livers were weighed and immediately flash frozen in liquid nitrogen.
500 μL of cold HPLC grade water was added to each monkey liver biopsy sample and rat liver samples were diluted 3-fold with cold HPLC grade water. Diluted liver samples were homogenized between 1 and 3 minutes. 50 μL of plasma samples and homogenized liver samples were quenched with 200 μL of 0.05% formic acid in acetonitrile. […] An Agilent 1200 series binary pump (Santa Clara, CA; G1312A) was used for elution and separation of compounds with a Hypersil Gold C18 HPLC column (Thermo Fisher; 50 x 3.0 mm, 5 μm) over 6.75 minutes with 99–3% gradient of Mobile Phase A (1% acetonitrile in 2.5 mM ammonium formate aqueous solution pH 2.6) and 1–97% gradient Mobile Phase B (90% acetonitrile in aqueous 10 mM ammonium formate pH 6.8).

Another series deals with KDM4A (Homo sapiens, UniProt O75164). Briefly: KDM4A enzymatic assay (AlphaLISA). It is filed as biochemical. On the procedure:
(§1) The following assay protocol was used for all histone demethylases tested except KDM1A, KDM5A, B, and D, which are described below. Compounds were serially diluted into a 384-well Alpha plate as a DMSO solution and mixed with 5 μL reaction buffer (buffer A) containing 50 mM HEPES (pH 7.0), 0.1% BSA, and 0.003% Tween-20. The enzyme of interest was pre-incubated with 15 μM of Fe^2+ for 10 min (except 30 min for KDM2B) in reaction buffer A. 5 μL of the enzyme mixture was added to each of the compound-containing wells and incubated for 10 min. The reaction was started by addition of a 5 μL mixture containing 300 nM peptide substrate, 75 μM L-ascorbic acid, and 30 μM α-ketoglutarate in buffer A. This final 15 μL of reaction mixture was incubated for 20 min for KDM5B and 1 hour for the other KDM enzymes. The reaction was quenched with 10 μL of diluted AlphaLISA Acceptor beads (1:400) in Epigenetics Buffer and incubated for 60 min. The Donor beads were diluted 1:400 into Epigenetics Buffer in the dark and 10 μL of this was added to each well and incubated for another 60 min in the dark. The assay plates were read on an Enspire plate reader (PerkinElmer) using a standard AlphaLISA program.
(§2) Data was analyzed using GraphPad Prism 6.0 (La Jolla, CA). […] IC50 values were calculated as an average of at least two independent experiments.
In general terms: Bead proximity is the source of the signal in Alpha formats.

The next series has as its target KDM3B (Homo sapiens, UniProt Q7LBC6). Briefly: KDM3B enzymatic assay (AlphaLISA). It is filed as biochemical. On the procedure:
as §1, §2

The target of the next series is T1, EZH2/EED/SUZ12 (Homo sapiens, UniProt O75530+Q15022+Q15910).
T1 construct: 2-746/2-441/2-739; purchased BPS
T1 sequence (Q15910 2-746): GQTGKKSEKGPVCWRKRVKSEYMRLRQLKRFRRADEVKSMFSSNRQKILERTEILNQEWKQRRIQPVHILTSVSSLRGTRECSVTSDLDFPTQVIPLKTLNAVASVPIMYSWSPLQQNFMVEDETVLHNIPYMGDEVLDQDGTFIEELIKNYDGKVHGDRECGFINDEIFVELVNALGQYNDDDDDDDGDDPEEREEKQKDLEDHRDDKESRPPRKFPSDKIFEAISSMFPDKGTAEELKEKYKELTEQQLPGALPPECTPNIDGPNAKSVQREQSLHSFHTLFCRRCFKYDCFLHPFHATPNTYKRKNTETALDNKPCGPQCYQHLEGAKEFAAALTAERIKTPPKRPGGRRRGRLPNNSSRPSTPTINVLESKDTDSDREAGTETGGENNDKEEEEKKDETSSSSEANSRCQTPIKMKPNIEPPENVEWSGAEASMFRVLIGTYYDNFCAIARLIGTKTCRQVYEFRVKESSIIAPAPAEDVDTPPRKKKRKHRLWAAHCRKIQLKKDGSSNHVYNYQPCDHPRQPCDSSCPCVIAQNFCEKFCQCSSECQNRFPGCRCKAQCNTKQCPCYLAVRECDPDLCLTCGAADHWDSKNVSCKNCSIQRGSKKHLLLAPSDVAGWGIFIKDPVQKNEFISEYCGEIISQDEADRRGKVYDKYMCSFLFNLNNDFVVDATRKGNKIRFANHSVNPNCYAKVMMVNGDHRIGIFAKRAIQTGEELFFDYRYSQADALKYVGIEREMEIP
T1 sequence (O75530 2-441 partner limits assumed): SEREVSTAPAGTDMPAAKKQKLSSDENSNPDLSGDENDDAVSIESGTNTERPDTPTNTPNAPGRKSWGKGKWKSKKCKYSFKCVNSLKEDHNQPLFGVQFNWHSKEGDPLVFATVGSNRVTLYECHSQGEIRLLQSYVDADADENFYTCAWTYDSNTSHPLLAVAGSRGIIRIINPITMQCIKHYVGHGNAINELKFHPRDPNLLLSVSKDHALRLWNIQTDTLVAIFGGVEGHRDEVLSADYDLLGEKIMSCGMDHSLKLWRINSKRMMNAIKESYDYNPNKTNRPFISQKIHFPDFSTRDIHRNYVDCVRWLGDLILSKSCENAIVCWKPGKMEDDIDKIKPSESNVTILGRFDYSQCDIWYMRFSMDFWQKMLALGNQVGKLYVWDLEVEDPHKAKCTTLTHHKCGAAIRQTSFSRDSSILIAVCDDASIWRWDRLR
T1 sequence (Q15022 2-739 partner limits assumed): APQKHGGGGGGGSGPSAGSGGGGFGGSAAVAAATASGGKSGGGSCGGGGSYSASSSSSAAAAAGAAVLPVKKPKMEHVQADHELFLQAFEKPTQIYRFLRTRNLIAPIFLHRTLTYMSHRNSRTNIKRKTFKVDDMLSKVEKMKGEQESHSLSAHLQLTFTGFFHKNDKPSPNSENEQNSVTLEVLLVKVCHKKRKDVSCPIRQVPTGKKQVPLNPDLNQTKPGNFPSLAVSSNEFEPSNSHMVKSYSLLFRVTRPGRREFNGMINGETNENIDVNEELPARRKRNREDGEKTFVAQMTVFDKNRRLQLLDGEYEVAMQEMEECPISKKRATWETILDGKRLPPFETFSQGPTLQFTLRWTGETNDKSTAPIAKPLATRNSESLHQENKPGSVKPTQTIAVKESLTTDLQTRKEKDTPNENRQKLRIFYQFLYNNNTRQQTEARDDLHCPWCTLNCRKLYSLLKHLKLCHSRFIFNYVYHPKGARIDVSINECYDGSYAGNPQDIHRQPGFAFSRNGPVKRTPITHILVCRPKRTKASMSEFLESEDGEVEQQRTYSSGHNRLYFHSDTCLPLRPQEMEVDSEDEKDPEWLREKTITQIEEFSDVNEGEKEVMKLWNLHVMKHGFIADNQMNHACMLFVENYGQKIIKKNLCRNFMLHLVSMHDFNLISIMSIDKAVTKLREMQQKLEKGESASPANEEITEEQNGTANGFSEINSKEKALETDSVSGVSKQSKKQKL
Nature of the series: Histone methyltransferase enzymatic assay, EZH2/EED/SUZ12. It is filed as biochemical. The note with it: enzyme conc. 100 nM. On the procedure:
(§3) Histone methyltransferase assays were performed in 96-well half-area optiplates (PerkinElmer) at room temperature. All concentrations are final unless noted otherwise. Compounds were serially diluted in DMSO and the final DMSO concentration was 1%. A 24 μL reaction mixture contained compound, enzyme, 200 nM of nucleosome or histone substrate, 400 nM ^3H-SAM (83.1 Ci/mmol), 50 mM Tris-HCl (pH 8.0), 50 mM NaCl, 5 mM MgCl2, 1 mM DTT, and 0.01% Tween-20. The plate was sealed, mixed on a Titramax plate shaker at 1200 rpm for 30 sec, and incubated at room temperature for 60 min. The reaction was quenched by addition of 24 μL mixture containing 5 mg/mL PVT-PEI beads and 300 μM unlabeled SAM in water. The plate was sealed, mixed as previously noted, incubated overnight, and read on a TopCount plate reader (PerkinElmer).
as §2

The target of another series is T2, NSD3 (Homo sapiens, UniProt Q9BZ95).
T2 construct: 1021-1322; purchased RBC (read as Reaction Biology Corporation, named)
T2 sequence (Q9BZ95 1021-1322): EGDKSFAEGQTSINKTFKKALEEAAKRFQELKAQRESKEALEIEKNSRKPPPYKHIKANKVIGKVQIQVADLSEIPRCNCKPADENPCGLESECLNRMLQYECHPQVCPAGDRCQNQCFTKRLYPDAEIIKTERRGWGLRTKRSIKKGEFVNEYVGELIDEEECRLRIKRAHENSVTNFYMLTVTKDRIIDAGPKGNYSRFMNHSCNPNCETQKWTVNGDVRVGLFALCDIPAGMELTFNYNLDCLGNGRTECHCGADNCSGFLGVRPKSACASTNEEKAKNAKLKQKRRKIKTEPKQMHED
Briefly: Histone methyltransferase enzymatic assay, NSD3. It is filed as biochemical. The note with it: enzyme conc. 100 nM. On the procedure:
as §3, §2

The test system of series [3] is host and viral transcriptomes in PHH. Briefly: RNA-seq of HBV-infected PHH. It is filed as cell-based, human. The note with it: 0.03, 0.3, or 10 μM; days 1, 3, 10, 13. On the procedure: (D) Hallmark Gene Set. […] For comparison, downregulation of HBV mRNA for same dose and time regiment is shown at the top.
Library building and sequencing for RNA-seq of PHH and rat liver was performed on all samples at EA Genomics/Q2 Solutions (Morrisville, NC). Approximately 100 mg of rat liver tissue from the left later lobe was flash frozen immediately after collection. PHH were lysed into RLT buffer (Qiagen; 79216) and immediately frozen. Liver/PHH samples were homogenized in QIAzol Lysis Reagent (79306) and after addition of chloroform the samples were separated into aqueous and organic phases by centrifugation. Ethanol was added to the upper aqueous phase and the sample was applied to an RNeasy Mini spin column (74104) for purification and RNA eluted with water. Libraries were prepared using the Illumina TruSeq stranded mRNA sample preparation kit according to the manufacturer’s protocol (Illumina, Inc., Hayward, CA; RS-122-2103). Approximately 30 million 2 x 50 bp paired-end reads were collected per sample using the Illumina HiSeq2000 sequencing platform. Sequencing reads were aligned to the human, rat, or HBV genomes by STAR [49]. The Bioconductor packages edgeR [50] and limma were used to normalize sequence count data (counts per million; cpm) and conduct differential gene expression analysis. The false discovery rate (FDR) was calculated using the Benjamini-Hochberg method.

The structures appear in SMILES notation. A value given as a limit tells only on which side of the number the result lay.

Sequence of KDM4A (O75164 whole entry): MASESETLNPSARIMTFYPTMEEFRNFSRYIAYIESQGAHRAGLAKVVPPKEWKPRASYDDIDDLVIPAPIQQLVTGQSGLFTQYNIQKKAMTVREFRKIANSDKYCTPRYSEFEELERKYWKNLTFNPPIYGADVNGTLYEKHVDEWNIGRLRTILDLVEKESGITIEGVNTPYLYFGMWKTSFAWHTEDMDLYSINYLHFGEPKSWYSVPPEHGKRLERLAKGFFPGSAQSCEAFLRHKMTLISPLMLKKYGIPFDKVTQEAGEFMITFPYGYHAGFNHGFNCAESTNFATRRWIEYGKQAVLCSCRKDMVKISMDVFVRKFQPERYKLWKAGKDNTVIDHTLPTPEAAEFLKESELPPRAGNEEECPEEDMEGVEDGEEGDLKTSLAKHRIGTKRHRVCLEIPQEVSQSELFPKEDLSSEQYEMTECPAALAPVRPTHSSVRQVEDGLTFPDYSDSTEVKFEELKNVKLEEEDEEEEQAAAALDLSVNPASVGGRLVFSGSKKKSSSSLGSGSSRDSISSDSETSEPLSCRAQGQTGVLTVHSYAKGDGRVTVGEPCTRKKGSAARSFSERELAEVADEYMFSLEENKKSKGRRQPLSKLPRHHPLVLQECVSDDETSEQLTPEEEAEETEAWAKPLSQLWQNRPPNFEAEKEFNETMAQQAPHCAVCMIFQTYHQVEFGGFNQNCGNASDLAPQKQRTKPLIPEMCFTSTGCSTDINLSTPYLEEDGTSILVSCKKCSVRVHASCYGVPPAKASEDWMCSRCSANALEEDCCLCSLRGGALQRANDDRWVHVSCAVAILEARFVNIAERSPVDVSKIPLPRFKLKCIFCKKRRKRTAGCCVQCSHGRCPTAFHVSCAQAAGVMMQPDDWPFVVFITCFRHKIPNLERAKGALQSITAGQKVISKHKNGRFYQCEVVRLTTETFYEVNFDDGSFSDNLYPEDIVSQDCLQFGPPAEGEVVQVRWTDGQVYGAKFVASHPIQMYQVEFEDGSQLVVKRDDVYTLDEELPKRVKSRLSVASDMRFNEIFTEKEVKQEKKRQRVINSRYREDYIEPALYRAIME
Sequence of KDM3B (Q7LBC6 whole entry): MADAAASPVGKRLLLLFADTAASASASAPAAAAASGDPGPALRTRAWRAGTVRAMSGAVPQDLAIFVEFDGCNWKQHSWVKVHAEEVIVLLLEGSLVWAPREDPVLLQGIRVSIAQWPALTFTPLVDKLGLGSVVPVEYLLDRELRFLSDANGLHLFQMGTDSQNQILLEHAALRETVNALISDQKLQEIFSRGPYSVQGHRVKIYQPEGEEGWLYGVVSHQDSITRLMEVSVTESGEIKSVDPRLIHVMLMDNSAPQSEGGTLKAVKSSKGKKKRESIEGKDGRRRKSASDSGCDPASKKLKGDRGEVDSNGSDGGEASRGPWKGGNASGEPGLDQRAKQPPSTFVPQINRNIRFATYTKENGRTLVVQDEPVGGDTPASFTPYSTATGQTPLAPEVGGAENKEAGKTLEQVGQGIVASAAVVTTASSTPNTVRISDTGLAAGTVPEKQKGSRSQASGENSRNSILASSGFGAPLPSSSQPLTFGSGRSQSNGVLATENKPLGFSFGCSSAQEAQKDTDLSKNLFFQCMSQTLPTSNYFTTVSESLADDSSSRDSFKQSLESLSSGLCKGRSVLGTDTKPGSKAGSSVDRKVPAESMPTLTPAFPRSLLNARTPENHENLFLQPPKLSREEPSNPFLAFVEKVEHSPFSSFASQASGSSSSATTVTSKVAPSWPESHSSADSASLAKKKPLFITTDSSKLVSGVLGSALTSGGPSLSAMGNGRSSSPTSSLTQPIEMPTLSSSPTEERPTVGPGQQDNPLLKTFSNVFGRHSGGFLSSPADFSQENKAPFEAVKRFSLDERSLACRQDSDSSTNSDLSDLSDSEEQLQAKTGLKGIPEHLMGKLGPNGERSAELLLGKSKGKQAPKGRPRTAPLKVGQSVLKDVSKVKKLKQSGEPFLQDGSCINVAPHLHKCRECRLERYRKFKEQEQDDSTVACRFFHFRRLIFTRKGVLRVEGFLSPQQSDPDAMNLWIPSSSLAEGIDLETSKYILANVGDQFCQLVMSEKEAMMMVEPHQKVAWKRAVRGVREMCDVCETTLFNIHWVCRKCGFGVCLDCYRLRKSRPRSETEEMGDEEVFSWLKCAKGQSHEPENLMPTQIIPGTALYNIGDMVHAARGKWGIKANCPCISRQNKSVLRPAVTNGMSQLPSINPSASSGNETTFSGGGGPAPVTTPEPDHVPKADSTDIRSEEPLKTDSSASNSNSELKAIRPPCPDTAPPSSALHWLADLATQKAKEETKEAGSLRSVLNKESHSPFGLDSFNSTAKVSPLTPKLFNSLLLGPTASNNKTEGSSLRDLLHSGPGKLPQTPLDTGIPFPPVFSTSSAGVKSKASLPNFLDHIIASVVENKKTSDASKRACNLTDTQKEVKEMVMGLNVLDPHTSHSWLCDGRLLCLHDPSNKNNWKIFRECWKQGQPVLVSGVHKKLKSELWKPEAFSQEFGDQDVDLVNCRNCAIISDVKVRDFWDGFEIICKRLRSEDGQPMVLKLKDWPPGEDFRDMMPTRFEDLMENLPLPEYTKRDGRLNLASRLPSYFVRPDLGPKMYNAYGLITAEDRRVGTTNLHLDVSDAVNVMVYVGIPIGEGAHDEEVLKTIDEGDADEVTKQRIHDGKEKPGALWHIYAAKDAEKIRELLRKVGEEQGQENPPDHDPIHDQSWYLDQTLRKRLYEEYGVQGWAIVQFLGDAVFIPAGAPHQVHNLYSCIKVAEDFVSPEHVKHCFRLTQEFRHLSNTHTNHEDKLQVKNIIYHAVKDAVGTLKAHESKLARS

By IC50 is commonly meant the concentration that inhibits the measured activity by half. A high value points to weaker potency. Take `CCN(CCN(C)C)C(=O)CNCc1cc(C(=O)O)ccn1` [GS-080]: the “cell-associated GS-080 Cmax and AUClast, pulse compared to continuous dosing” value in series [1] (PHH dosed with 1 µM GS-5801, two-hour pulse vs three day exposure) is “two-fold lower Cmax and AUClast values”. The same compound returned a half-life at 1 µM in series [1] (human, primary human hepatocytes (PHH), cell-associated, PHH, 1 uM, uninfected PHH) of 42 to 66 h. Also, the Kp in series [2] stood at 44. The “Fold Selectivity Compared to KDM5A” value was 20 fold on KDM4A (IC50 of KDM4A over KDM5A) and > 27,800 fold at KDM3B (IC50 of KDM3B over KDM5A). In addition, the IC50 against KDM4A (enzyme concentration 0.2 nM) was 0.0072 µM; against KDM3B (enzyme concentration 0.1 nM), greater than 10 µM; on EZH2/EED/SUZ12, greater than 100 µM; against NSD3, greater than 100 µM.

Take `CCOC(=O)c1ccnc(CNCC(=O)N(CC)CCN(C)C)c1` [GS-5801]: the “levels of HBV mRNA as measured by RNA-seq” value in series [3] was “decreased after GS-5801 treatment in a dose and time dependent manner”.
